{"source": "patent US9867794B2", "about": "“Regulation of osteopontin” (Pathologica LLC, priority 2007, dated 2018)", "key": {"IL6": {"tested_on": "IL6", "assay": "Quantitative RT-PCR, unsorted mononuclear cells, IL6", "assay_type": "cell-based, human", "method": "(§1) To evaluate the effect of MGBG on gene expression, blood samples were obtained from patients (N=18, 10 HIV-infected and 8 Healthy Controls). Mononuclear cells were isolated via Percoll gradient centrifugation. The cells were split into two tubes, one treated with 10 μM of MGBG and the other non-treated. The cells were then cultured overnight in RPMI media plus 10% fetal bovine serum at 37 C under non-adherent conditions, collected, lysed using Trizol solution, and total RNA prepared according to manufacturer's instructions (Invitrogen, Carlsbad, Calif.).\n(§2) Approximately 200 ng of total RNA prepared from each sample was converted to cDNA using the First Strand cDNA Synthesis Kit for RT-PCR [AMV] kit (Roche Applied Diagnostics, Indianapolis, Ind.) according to manufacturer's instructions. Around 5 ng of cDNA sample was then used for PCR performed on a LightCycler (Roche Applied Diagnostics, Indianapolis, Ind.) using the LightCycler FastStart DNA Master SYBR Green I kit. PCR conditions are as follows: 1 cycle of denaturation at 95° C. for 10 minutes, followed by 45 cycles of 95° C. for 10 seconds, 68° C. for 10 seconds, and 72° C. for 16 seconds.\n(§3) The sequences of gene-specific primers evaluated are listed below. All samples were also amplified with the human β-actin LightCycler-Primer set (Roche Diagnostics)."}, "SGNE3": {"tested_on": "SGNE3", "assay": "Quantitative RT-PCR, unsorted mononuclear cells, SGNE3", "assay_type": "cell-based, human", "method": "as §1, §2, §3"}, "SIVmac251": {"tested_on": "SIVmac251", "assay": "SIV-infected, CD8-depleted rhesus macaques treated with MGBG: disease", "assay_type": "in vivo", "method": "These monkeys were then treated with MGBG as described."}, "osteopontin": {"tested_on": "osteopontin", "assay": "QRT-PCR in CD14/CD16-separated cell fractions, osteopontin RNA", "assay_type": "cell-based, human", "details": "for osteopontin RNA, median change relative to no MGBG: 10 μM MGBG", "method": "The changes induced by MGBG in different blood cell types were determined for osteopontin and adenosine deaminase and 7 other genes. For this experiment, blood samples were obtained from 6 healthy controls (3 men/3 women from 20 to 55 years of age) and mononuclear cells were isolated via Percoll gradient centrifugation. The cells were then incubated for 3 hours in RPMI media plus 10% fetal bovine serum at 37 C. At that point MGBG was added to 10 μM to half of each sample and then the cells were incubated at 37 C for 20 more hours. The cells were then bound to magnetic beads coated with antibodies to human CD16. Bound cells (CD16 expressing) were separated from unbound cells using an AutoMACs according to manufacturer's instructions (Miltenyi, Auburn Calif.). Then CD16+ cells are released from the magnetic beads and both the CD16+ and CD16− cells are combined with magnetic beads coated with antibodies to human CD14. Antibody bound and unbound cells were then separated using the AutoMACs machine. […] Cells that neither express CD16 nor CD14 (the −/− Cells). This is mostly T lymphocytes; 2. Cells that only express CD16. This includes contaminating granulocytes not removed by Percoll centrifugation and CD16+ monocytes with very low CD14 expression; 3. Cells that express both CD16 and CD14. This includes monocytes that are expressing CD16+ and macrophages (which express high levels of both); and 4. Cells that only express CD14. This would include most normal human monocytes. After separation, cells of each fraction are washed with PBS and the number of viable cells determined by trypan blue exclusion. RNA is then prepared from each cell group using TRIZOL, according to manufacturer's instructions."}, "SPP1": {"tested_on": "SPP1", "assay": "Quantitative RT-PCR, unsorted mononuclear cells, SPP1", "assay_type": "cell-based, human", "method": "as §1, §2, §3"}, "NBS1": {"tested_on": "NBS1", "assay": "Quantitative RT-PCR, unsorted mononuclear cells, NBS1", "assay_type": "cell-based, human", "method": "as §1, §2, §3"}, "TNFα": {"tested_on": "TNFα", "assay": "Microarray analysis of mononuclear cells, TNFα probe", "assay_type": "cell-based, human", "method": "(§4) Blood samples were obtained from HIV infected patients (N=9) with positive viral load and reduced CD4 counts, and non-HIV infected, healthy controls (N=6). Blood was collected into heparin anticoagulant tubes and mononuclear cells were isolated by Percoll gradient centrifugation. The cells from each sample were split into 2: one-half receives MGBG at concentration of 10 μM and the other half received no treatment. All samples were then cultured overnight in RPMI media with 10% fetal bovine serum at 37° C. under non-adherent conditions. The next day cells were collected by centrifugation, washed one time with PBS, and lysed by resuspension in TRIZOL, and total RNA was prepared according to manufacturer's instructions (Invitrogen, Carlsbad, Calif.). […] The RNA was then amplified for microarray analysis using a 2 cycle amplification protocol according to the manufacturer's instructions (Affymetrix, Santa Clara, Calif.). The amplified RNAs were then hybridized to Human Genome U133 plus 2.0 microarrays (Affymetrix) and expression data was obtained using an Affymetrix scanner and GCOS protocols. Microarray data was analyzed with GeneSpring Microarray Suite. Results were normalized using a set of 100 probe sets determined by the manufacturer to have relatively invariant expression across most cell types."}, "G1P3": {"tested_on": "G1P3", "assay": "Quantitative RT-PCR, unsorted mononuclear cells, G1P3", "assay_type": "cell-based, human", "method": "as §1, §2, §3"}, "[1]": {"tested_on": "CD14+ macrophages; CD16+/CD14− cells", "assay": "Phenotypic analysis of cells targeted by MGBG", "assay_type": "cell-based", "details": "increasing concentrations of MGBG", "method": "Additionally, cells being targeted by MGBG were investigated. […] To elucidate the effects of MGBG and OPN on cell motility, migration assays were conducted. MGBG at 10 μM inhibited macrophage Osteopontin production from >200 ng/mL to nondetectable levels while simultaneously inhibiting HeLa cell invasion into a Matrigel matrix."}, "IL10": {"tested_on": "IL10", "assay": "Microarray analysis of mononuclear cells, IL10 probe", "assay_type": "cell-based, human", "details": "presence of MGBG, all samples", "method": "as §4"}, "[2]": {"details": "10 μM MGBG overnight, individual samples"}, "[3]": {"details": "10 μM MGBG overnight, untreated vs treated, negative = fold reduction, individual samples"}, "[4]": {"details": "10 μM MGBG, all unsorted samples"}}, "note": "Several values for one entry are separate records, joined by “and”; a condition that tells them apart may be missing. Equal values may be shown once.", "data": [{"smiles": "CC(/C=N/NC(=N)N)=N\\NC(=N)N", "note": "[MGBG, 1,1′ [methylethanediylidene]dinitrilodiguanidine]", "values": [{"measurement": "Fold change IL6 by QRT-PCR", "setting": "IL6; [2]", "result": "−5.31 fold and 3.71 fold and 1.04 fold and 1.01 fold and −2.93 fold and −4.17 fold and 2.20 fold and 2.83 fold and −2.71 fold and −4.06 fold and 1.74 fold (2×) and 1.30 fold and 1.46 fold and −6.15 fold and −1.09 fold and −5.46 fold and 14.72 fold"}, {"measurement": "IL6 AVERAGE", "setting": "IL6; 10 μM MGBG, all samples", "result": 1.91, "unit": "fold"}, {"measurement": "IL6 MAX", "setting": "IL6; 10 μM MGBG, all samples", "result": 14.72, "unit": "fold"}, {"measurement": "IL6 MIN", "setting": "IL6; 10 μM MGBG, all samples", "result": "−6.15", "unit": "fold"}, {"measurement": "Fold change SGNE3 by QRT-PCR", "setting": "SGNE3; [3]", "result": "1.58 fold and −3.25 fold and −1.30 fold and −2.39 fold and −2.43 fold and −1.48 fold and 1.61 fold and −3.61 fold and −1.66 fold and −1.13 fold and 1.79 fold and −7.11 fold and −2.50 fold and −4.41 fold"}, {"measurement": "Fold change SGNE3, AVERAGE", "setting": "SGNE3; [4]", "result": "−1.9", "unit": "fold"}, {"measurement": "Fold change SGNE3, MAX", "setting": "SGNE3; [4]", "result": 1.8, "unit": "fold"}, {"measurement": "Fold change SGNE3, MIN", "setting": "SGNE3; [4]", "result": "−7.1", "unit": "fold"}, {"measurement": "SGNE3 regulation by MGBG", "setting": "SGNE3; level of inhibition in most samples is low", "result": "mostly down-regulated"}, {"measurement": "SGNE3 % >2 fold Changed", "setting": "SGNE3; share of samples, 10 μM MGBG", "result": 50, "unit": "%"}, {"measurement": "SIV-associated macrophages in the frontal cortex", "setting": "SIVmac251; 4 doses of MGBG, compared to non-treated", "result": "absence of SIV-associated macrophages"}, {"measurement": "macrophage infiltration in brains", "setting": "SIVmac251; FIG. 9, treated infected macaques", "result": "no pathology was observed"}, {"measurement": "illness (AIDS and dementia)", "setting": "SIVmac251; both trials, treated animals", "result": "none of the treated animals became ill"}, {"measurement": "SIVE or DRG infiltration", "setting": "SIVmac251; first trial, 200, 300, 400 mg/m^2 weekly, 2 treated animals", "result": "no indications of SIVE or DRG infiltration"}, {"measurement": "SIV disease", "setting": "SIVmac251; second trial, bi-weekly 250 mg/m^2, 2 treated animals", "result": "no evidence for SIV disease"}, {"measurement": "osteopontin RNA, median change relative to no MGBG", "setting": "osteopontin; CD14+ monocyte fraction", "result": 0.21}, {"measurement": "osteopontin RNA median reduction", "setting": "osteopontin; CD14+ monocyte fraction, 10 μM MGBG 20 h, healthy controls, p=0.03", "result": 4.8, "unit": "fold"}, {"measurement": "osteopontin RNA, median change relative to no MGBG", "setting": "osteopontin; CD14/16++ cells, not significant", "result": 0.61}, {"measurement": "osteopontin RNA, median change relative to no MGBG", "setting": "osteopontin; CD16+ cells, not significant", "result": 1.12}, {"measurement": "osteopontin RNA, median change relative to no MGBG", "setting": "osteopontin; double negative cells, not significant", "result": 0.70}, {"measurement": "Fold change SPP1 by QRT-PCR", "setting": "SPP1; [3]", "result": "−20.11 fold and −83.87 fold and −6.59 fold and −1.30 fold and −8.82 fold and −95.67 fold and −7.89 fold and −1.95 fold and −46.21 fold and −5.90 fold and −2.11 fold and −6.15 fold and −1.28 fold and −467.88 fold and −18.90 fold (2×) and −300.25 fold and −2.14 fold"}, {"measurement": "Fold change SPP1, AVERAGE", "setting": "SPP1; [4]", "result": "−60.9", "unit": "fold"}, {"measurement": "Fold change SPP1, MAX", "setting": "SPP1; [4]", "result": "−1.3", "unit": "fold"}, {"measurement": "Fold change SPP1, MIN", "setting": "SPP1; [4]", "result": "−467.9", "unit": "fold"}, {"measurement": "SPP1 fold changes between the untreated and the treated", "setting": "SPP1; certain unsorted samples", "result": "up to 300 fold"}, {"measurement": "SPP1 % >2 fold Changed", "setting": "SPP1; share of samples, 10 μM MGBG", "result": 83, "unit": "%"}, {"measurement": "Fold change NBS1 by QRT-PCR", "setting": "NBS1; [2]", "result": "1.68 fold and 1.25 fold and 1.35 fold and −1.56 fold and 2.07 fold and 3.51 fold (2×) and −1.09 fold and 1.04 fold and 4.08 fold and 2.31 fold and 1.14 fold and 1.27 fold and −4.35 fold and −8.51 fold and −2.51 fold and −1.89 fold and 3.63 fold"}, {"measurement": "NBS1 AVERAGE", "setting": "NBS1; 10 μM MGBG, all samples", "result": 1.65, "unit": "fold"}, {"measurement": "NBS1 MAX", "setting": "NBS1; 10 μM MGBG, all samples", "result": 4.08, "unit": "fold"}, {"measurement": "NBS1 MIN", "setting": "NBS1; 10 μM MGBG, all samples", "result": "−8.51", "unit": "fold"}, {"measurement": "samples less than 2 fold changed, TNFα probe", "setting": "TNFα; HIV infected individuals", "result": "6 out of 9"}, {"measurement": "samples less than 2 fold changed, TNFα probe", "setting": "TNFα; controls", "result": "2 out of 6"}, {"measurement": "average change for the TNFα Probe set, up-regulated", "setting": "TNFα; presence of MGBG, all samples", "result": 8.7, "unit": "fold"}, {"measurement": "Fold change G1P3 by QRT-PCR", "setting": "G1P3; [2]", "result": "1.92 fold and −1.25 fold (2×) and 1.31 fold and −2.03 fold and −1.14 fold (2×) and −2.04 fold and 2.13 fold and 1.22 fold (2×) and −2.99 fold and −6.63 fold and −1.95 fold and −2.85 fold and 1.47 fold and −1.66 fold and 1.68 fold"}, {"measurement": "G1P3 AVERAGE", "setting": "G1P3; 10 μM MGBG, all samples", "result": 0.96, "unit": "fold"}, {"measurement": "G1P3 MAX", "setting": "G1P3; 10 μM MGBG, all samples", "result": 2.13, "unit": "fold"}, {"measurement": "G1P3 MIN", "setting": "G1P3; 10 μM MGBG, all samples", "result": "−6.63", "unit": "fold"}, {"measurement": "levels of CD16+/CD14− cells", "setting": "[1]", "result": "did not affect"}, {"measurement": "yields of CD14+ macrophages", "setting": "[1]", "result": "decreasing yields"}, {"measurement": "average change in IL10 signal, upregulated", "setting": "IL10", "result": 5.6, "unit": "fold"}]}]}
